Experimental data as given in patent publication US8969554B2, “6-acyl-1,2,4-triazine-3,5-dione derivative and herbicides” (Kumiai Chemical Industry Co., Ltd., priority 2010, dated 2015).

Columns and labels:
Format in all cases: in vivo
A. retroflexus [1] = test: Herbicidal activity by field foliage treatment (Test example 3); design: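 index 0 to 10 in 10% steps of herbicidal effect with 10 meaning complete death and 0 below 10%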; conditions: 1000 g effective component per hectare, day 14 after the treatment
How it was run: (§1)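 Post-emergence foliar spray, 2-week-old greenhouse seedlings in field soil; wettable powder in water, 1000 g a.i./ha in 1000 L/ha. Greenhouse hold, visual herbicidal rating at 14 d.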

Indian millet [2] = test: as above; design: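 index 0 to 10 in 10% steps of herbicidal effect with 10 meaning complete death and 0 below 10%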; conditions: 1000 g effective component per hectare, day 14 after the treatment
How it was run: as §1

Setaria viridis = test: as above; conditions: 1000 g effective component per hectare, day 14 after the treatment;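 note: index 0 to 10 in 10% steps of herbicidal effect with 10 meaning complete death and 0 below 10%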
Method: Test example 3 Test for Determining Herbicidal Activity by Field Foliage Treatment A 80 cm^2 wide plastic pot was filled with a field soil and seeds of each of Indian millet and A. retroflexus were sowed and then incubated for 2 weeks in a green house. The wettable powder produced with reference to the Formulation example 1 was diluted water, and applied from the air to entire body of the plant as foliage treatment by using a small sprayer in an amount of 1000 liters per hectare so that the effective component is 1000 g per hectare. After that, the plants were cultivated in a greenhouse, and on day 14 after the treatment, evaluation was made by the criteria described in Table 72 for determining the herbicidal effects.

A. retroflexus [3] = test: Herbicidal activity by field soil treatment (Test example 2); design: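 index 0 to 10 in 10% steps of herbicidal effect with 10 meaning complete death and 0 below 10%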; conditions: 1000 g effective component per hectare, day 21 after the treatment
How it was run: (§2)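 Soil-surface spray after sowing; wettable powder in water, 1000 g a.i./ha at 1000 L/ha. 80 cm^2 pots, field soil, greenhouse. Visual herbicidal score on day 21.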

Indian millet [4] = test: as above; design: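 index 0 to 10 in 10% steps of herbicidal effect with 10 meaning complete death and 0 below 10%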; conditions: 1000 g effective component per hectare, day 21 after the treatment
How it was run: as §2

Echinochloa crus-galli [5] = test: Herbicidal activity by field foliage treatment (Test example 3); design: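 index 0 to 10 in 10% steps of herbicidal effect with 10 meaning complete death and 0 below 10%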; conditions: 1000 g effective component per hectare, day 14 after the treatment
How it was run: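 Herbicidal effect was rated on day 14 following a foliar spray of 1000 g active ingredient per hectare, applied as water-diluted wettable powder at 1000 L/ha. Plants had been raised for 2 weeks in field soil under greenhouse conditions before spraying.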

Monochoria vaginalis = test: Herbicidal activity by paddy field soil treatment (Test Example 1); design: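 index 0 to 10 in 10% steps of herbicidal effect with 10 meaning complete death and 0 below 10%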; conditions: 1000 g of effective component per hectare, evaluated on day 21 after the treatment, criteria of Table 72
How it was run: (§3)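 Pre-emergence paddy soil test: sown pots, 3 cm flood, water-surface application of diluted wettable powder 1 day after sowing, 1000 g a.i./ha; greenhouse; effect scored on graded scale at day 21.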

Scirpus juncoides Rocxb. = test: as above; design: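 index 0 to 10 in 10% steps of herbicidal effect with 10 meaning complete death and 0 below 10%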; conditions: applied on water surface, 1000 g of effective component per hectare, day 21 after the treatment
How it was run: as §3

Echinochloa oryzicola = test: as above; design: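 index 0 to 10 in 10% steps of herbicidal effect with 10 meaning complete death and 0 below 10%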; conditions: 1000 g of effective component per hectare, evaluated on day 21 after the treatment, criteria of Table 72
How it was run: as §3

Echinochloa crus-galli [6] = test: Herbicidal activity by field soil treatment (Test example 2); design: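 index 0 to 10 in 10% steps of herbicidal effect with 10 meaning complete death and 0 below 10%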; conditions: 1000 g effective component per hectare, day 21 after the treatment
How it was run: as §2

Row | Structure (SMILES) | herbicidal effect index, Amaranthus retroflexus (A. retroflexus [1]) | herbicidal effect index, Abutilon theophrasti (Indian millet [2]) | herbicidal effect index, Setaria viridis (Setaria viridis) | herbicidal effect index, Amaranthus retroflexus (A. retroflexus [3]) | herbicidal effect index, Abutilon theophrasti (Indian millet [4]) | herbicidal effect index, Echinochloa crus-galli (Echinochloa crus-galli [5]) | Herbicidal effects index number, Monochoria vaginalis (Monochoria vaginalis) | herbicidal effect index, S. juncoides Rocxb. (Scirpus juncoides Rocxb.) | Herbicidal effects index number, Echinochloa oryzicola (Echinochloa oryzicola) | herbicidal effect index, Echinochloa crus-galli (Echinochloa crus-galli [6])
1 | Cc1cc(Cl)cc(-n2c(=O)c(C(=O)C3=C(O)CCCC3=O)nn(C)c2=O)c1 [I-126] | 10 | 9 | 7 | 10 | 10 | 9 | 10 | 10 | 10 | 
2 | O=C1CCCC(O)=C1C(=O)c1nn(C(F)F)c(=O)n(-c2ccccc2)c1=O [I-261] | 10 | 10 | 7 |  | 10 |  | 10 | 8 | 8 | 
3 | Cn1nc(C(=O)C2=C(O)CCCC2=O)c(=O)n(-c2ccccc2)c1=S [I-263] | 10 | 10 | 9 | 10 | 8 | 9 | 10 | 10 | 10 | 
4 | CC(=O)Cn1c(=O)c(C(=O)C2=C(O)CCCC2=O)nn(C)c1=O [I-328] | 10 | 10 | 7 |  |  | 7 | 10 | 10 | 10 | 
5 | Cn1nc(C(=O)C2=C(O)CCCC2=O)c(=O)n(CC2CCCO2)c1=O (stereo not shown) [I-339] | 10 | 10 |  | 10 | 10 | 9 | 10 | 10 | 10 | 8
6 | COc1cc(-n2c(=O)c(C(=O)C3=C(O)CCCC3=O)nn(C)c2=S)cc(OC)c1OC [I-464] | 10 | 10 | 7 | 7 |  |  | 10 | 10 | 10 | 
7 | Cn1nc(C(=O)C2=C(O)CCCC2=O)c(=O)n(CC(=O)C(C)(C)C)c1=O [I-468] | 10 | 10 | 9 | 7 |  | 9 | 10 | 10 | 10 | 
8 | Cn1nc(C(=O)C2=C(O)CCCC2=O)c(=O)n(-c2c(F)c(F)cc(F)c2F)c1=O [I-469] | 10 | 10 | 10 |  |  | 10 | 10 | 10 | 10 | 
9 | CCN(c1ccccc1)n1c(=O)c(C(=O)C2=C(O)CCCC2=O)nn(C)c1=O [I-474] | 9 | 9 |  | 10 | 10 | 7 | 10 | 10 | 10 | 7
10 | CN(c1ccc(F)cc1)n1c(=O)c(C(=O)C2=C(O)CCCC2=O)nn(C)c1=O [I-476] | 10 | 9 |  | 10 | 10 | 7 | 10 | 10 | 10 | 7
11 | O=C1CCCC(O)=C1C(=O)c1nn(CC(F)(F)F)c(=O)n(-c2ccccc2)c1=O [I-477] | 10 | 9 |  | 10 | 10 | 9 | 10 | 10 | 10 | 9
12 | CCON=C(C)Cn1c(=O)c(C(=O)C2=C(O)CCCC2=O)nn(C)c1=O [I-478] | 10 | 9 |  | 10 | 10 | 8 | 10 | 9 | 10 | 9
13 | Cn1nc(C(=O)O)c(=O)n(CC(=O)C(C)(C)C)c1=O [V-362] | 10 | 10 | 9 | 7 |  | 9 | 10 | 10 | 10 | 
14 | Cn1nc(C(=O)O)c(=O)n(-c2c(F)c(F)cc(F)c2F)c1=O [V-363] | 10 | 10 | 10 |  |  | 10 | 10 | 10 | 10 | 
15 | CCN(c1ccccc1)n1c(=O)c(C(=O)O)nn(C)c1=O [V-368] | 9 | 9 |  | 10 | 10 | 7 | 10 | 10 | 10 | 7
16 | CN(c1ccc(F)cc1)n1c(=O)c(C(=O)O)nn(C)c1=O [V-370] | 10 | 9 |  | 10 | 10 | 7 | 10 | 10 | 10 | 7
17 | CCON=C(C)Cn1c(=O)c(C(=O)O)nn(C)c1=O [V-371] | 10 | 9 |  | 10 | 10 | 8 | 10 | 9 | 10 | 9
18 | COc1cc(-n2c(=O)c(C(=O)C3=C(O)C(C)(C)C(=O)C(C)(C)C3=O)nn(C)c2=O)cc(OC)c1OC [VI-97] | 10 | 10 | 10 |  |  | 7 | 10 | 10 | 10 | 
